According to ChEMBL document CHEMBL1128594, “Synthesis and antimalarial activities of 12 beta-allyldeoxoartemisinin and its derivatives” (J Med Chem, 1995):
≈ marks a conversion by molar mass, not a printed value.

Key:
Plasmodium falciparum [1] = experiment: In vitro antimalarial activity against drug-resistant Plasmodium falciparum W-2; assay type: functional, organism-based
Plasmodium falciparum [2] = experiment: In vitro antimalarial activity against drug-resistant Plasmodium falciparum D6; assay type: functional, organism-based

| Structure (SMILES) | IC50 (Plasmodium falciparum [1]) [ng/mL] | IC50 (Plasmodium falciparum [2]) [ng/mL] |
| --- | --- | --- |
| C[C@H]1[C@@H](CCO)O[C@@H]2OC3(C)CC[C@H]4[C@H](C)CC[C@@H]1[C@@]24OO3 (single isomer, unassigned) | 0.59 (≈ 1.89 nM) | 2.04 (≈ 6.53 nM) |
| C[C@@H]1CC[C@H]2[C@@H](C)CO[C@@H]3OC4(C)CC[C@@H]1[C@]32OO4 (single isomer, unassigned) [DEOXOARTEMISININ] | 0.48 (≈ 1.79 nM) | 1.11 (≈ 4.14 nM) |
| CCC[C@H]1O[C@@H]2O[C@@]3(C)CC[C@H]4[C@H](C)CC[C@@H]([C@H]1C)[C@@]24OO3 | 0.16 (≈ 0.515 nM) | 0.41 (≈ 1.32 nM) |
| CCO[C@H]1O[C@@H]2O[C@@]3(C)CC[C@H]4[C@H](C)CC[C@@H]([C@H]1C)[C@@]24OO3 [ARTEMOTIL] | 0.18 (≈ 0.576 nM) | 0.34 (≈ 1.09 nM) |
| C=CC[C@H]1O[C@@H]2O[C@@]3(C)CC[C@H]4[C@H](C)CC[C@@H]([C@H]1C)[C@@]24OO3 | 0.59 (≈ 1.91 nM) | 1.07 (≈ 3.47 nM) |
| C[C@@H]1CC[C@H]2[C@@H](C)C(=O)O[C@@H]3O[C@@]4(C)CC[C@@H]1[C@]32OO4 [ARTEMISININ] | 0.32 (≈ 1.13 nM) | 0.86 (≈ 3.05 nM) |
| CC[C@H]1O[C@@H]2O[C@@]3(C)CC[C@H]4[C@H](C)CC[C@@H]([C@H]1C)[C@@]24OO3 | 0.29 (≈ 0.978 nM) | 1.09 (≈ 3.68 nM) |
